Data on four molecules can be found in patent US20250064886A1, “CARDIOVASCULAR AND CEREBROVASCULAR DRUG AND USE THEREOF” (HANGZHOU ADAMERCK PHARMLABS INC., priority 2021, published 2025).

The test system of data set [1] is cerebral ischemic injury in rats caused by autologous thrombus and thrombin. Briefly: Ischemic brain injury in rats caused by autologous thrombus and thrombin (Example 6). The format is in vivo, rat. The procedure: The drug was administered once by slow tail vein injection (1 ml per minute) 2 h after modeling, and the decrease in blood flow was monitored after the injection of thrombin, and 120 min after the administration of the drug. Neurobehavioral scoring was performed to determine the neurological function of rats after 24 h. The cerebral infarction rate and cerebral water content of rats were determined using 2,3,5-triphenyltetrazolium chloride (TTC) staining method, and the pathological damage of the brain of rats administered with drug 2 h after cerebral ischemia was observed by hematoxylin-eosin (HE) staining.

For data set [2], the system named is vascular endothelial injury induced thrombosis model in zebrafish. Briefly: Preventative effect on vascular endothelial injury induced thrombosis, ponatinib zebrafish model (Example 1). The format is in vivo. Particulars: 4.00 ng/tail injected. The procedure:
Experimental method: 420 tails of 5 dpf wild type AB strain zebrafish were randomly selected and placed in a six-well plate, with 30 fish per well (experimental group). The fish were injected with compound (1), compound (2), compound (3), compound (4), compound (5), compound (6), compound (7), compound (8), compound (9), compound (10), and compound (11) (structural formula shown in Table 1) at a dose of 4.00 ng/tail, with positive control drug acetylsalicylic acid being administered by dissolving it in water at a concentration of 30.0 µg/mL. Normal control group (i.e. zebrafish treated with standard diluted water) and model control group were set up, with a capacity of 3 mL per well (experimental group). Except for normal control group, the remaining experimental groups were all given Punatinib by dissolving it in water to induce vascular endothelial injury induced thrombosis model in zebrafish. The zebrafish were stained with o-dianisidine after co-treatment with ponatinib and samples for a period of time under incubation conditions at 28° C.
After staining, 10 zebrafish in each group were randomly selected and photographed under the microscope, and the intensity of cardiac erythrocyte staining in zebrafish was analyzed using NIS-Elements D 3.20 advanced image-processing software, and the samples were evaluated for the preventative effect on vascular endothelial injury induced thrombosis by the statistical results of cardiac erythrocyte staining intensity.
The preventative effect on thrombosis is calculated as follows: […]
Statistical analysis was performed using SPSS software, and p<0.05 indicates significant differences

The subject of another data set is tryptase. Kind of data set: Sensitization risk: tryptase expression (OD, BAPNA) in zebrafish (Example 2). Particulars: for Sensitization risk, in words: 500 ng/tail; for Relative sensitization risk (compared with positive control group) / Sensitization risk (%) / Absorbance value (OD value), parallel wells 1-6 / Absorbance value (OD value), mean: 500 ng/tail intravenous; for Absorbance value (OD value), parallel wells 1-6: 28° C. 1 day, single wells; for Absorbance value (OD value), mean: mean of 6 wells. It is filed as in vivo. The protocol:
Experimental method: 2 dpf wild type AB strain zebrafish were randomly selected and placed in a 24-well plate, with each group 6 parallel wells and 10 zebrafish per well. The zebrafish were injected intravenously with samples at a dose of 500 ng/tail and the positive control “C48/80” at a concentration of 1.5 μg/mL, while normal control group was set up. Each well has a capacity of 1 mL.
All experimental groups were given BAPNA by dissolving it in the water. After treatment at 28° C. for 1 day, the liquid was transferred to 96-well plates with 200 μL/well, and the relative absorbance values (OD values) of the expression levels of tryptase in each experimental group were detected using an microplate reader, and the results of the statistical analysis of the OD values were used to evaluate the risk of sensitization by sample. Statistical results were expressed as mean±SE.
Statistical analysis was performed using SPSS software, and p<0.05 indicates significant differences.

Data set [3] relates to lipid ROS levels in Erastin-induced nerve cells. Briefly: Lipid ROS levels (C11-BODIPY probe) in Erastin-induced nerve cells (Example 8). The conditions noted are these: Erastin 50 μM. It is filed as cell-based, rat. The procedure: (§1) Experimental method: Primary neuron cells were incubated in a medium containing Erastin (final concentration of 50 μM) for 24 hours, and then incubated in a medium containing different concentrations of the test drug and Erastin (final concentration of 50 μM) for another 24 hours. After incubation, Real time PCR was used to detect mRNA expression of GPX4 in each group of cells, CCK8 assay was used to detect cell viability in each group of cells, C11-BODIPY probe method was used to detect intracellular lipid ROS levels in each group of cells, and PGSK probe method was used to detect iron content in cells.
(§2) The experimental data were expressed in means±SD, and statistical differences between groups were determined using one-way ANOVA and Tukey's test, with p-values less than 0.05 considered significant.
After incubation, the C11-BODIPY probe method was used to detect the lipid ROS levels in each group of cells. The results were presented as Mean±SD. Compared with the control group, ***p<0.0001; compared with the model group, #p<0.05, ##p<0.01.

For data set [4], the system named is vascular inflammation in high-glucose and high-fat zebrafish. Briefly: Regressive effect on vascular inflammation in high-glucose and high-fat zebrafish (Example 9). It is filed as in vivo. The procedure: Experimental method: 360 tails of 5 dpf macrophage fluorescent zebrafish were randomly selected and placed in beakers with 30 tails in each beaker, compound (1), compound (3), and compound (5) were given intravenously, and the positive control group was given atorvastatin calcium by dissolving it in water at a concentration of 30 μg/mL, while the normal control group (fish farming water-treated zebrafish) and the model control group were set up, and the volume of each beaker (experimental group) was 25 mL. Except for the normal control group, all other groups were given high-lipids and high-sucrose feed by dissolving it in water. Compound (1), compound (3) and compound (5) group were co-treated with high-lipids and high-sucrose feed for 30 h. The treatment was carried out up to 9 dpf, and 10 zebrafish were randomly selected from each experimental group to collect the intensity of the macrophage fluorescence within the tail vein and around the tail vein of the zebrafish under fluorescence microscope, and the results of the statistical analysis were used to evaluate the regressive effect of compound (1), compound (3), compound (5) on zebrafish vascular inflammation in the high sugar and high fat model.

The test system of the next data set is GPX4 mRNA. Kind of data set: GPX4 mRNA expression (real time PCR) in Erastin-induced neuronal cells (Example 8). Particulars: Erastin 50 μM. It is filed as cell-based, rat. The protocol:
as §1, §2
After incubation, real time PCR was used to detect the mRNA expression of GPX4 in each group of cells. The results were presented as Mean±SD. Compared with the control group, ***p<0.0001; Compared with the model group, #p<0.05, […].

The test system of data set [5] is Erastin-induced neuronal cells. Kind of data set: Cell viability (CCK8) of Erastin-induced neuronal cells (Example 8). Particulars: for Cell viability (%): Erastin 50 μM. The format is cell-based, rat. The procedure: as §1, §2
After incubation, the CCK8 experiment was used to detect the cell viability of each group of cells. The results were presented as Mean±SD. Compared with control group, ***p<0.0001. Compared with model control group, ^#P<0.05, ^##P<0.01.

In data set [6] the test system is iron content in Erastin-induced neuronal cells. Briefly: Iron content (PGSK probe) in Erastin-induced neuronal cells (Example 8). It is filed as cell-based, rat. Particulars: Erastin 50 μM. The procedure: as §1, §2
After incubation, the PGSK probe method was used to detect the intracellular iron content. The results were presented as Mean±SD. Compared with the control group, ***p<0.0001; Compared with the model group, #p<0.05, ##p<0.01.

Where “and” joins values, the source holds several entries; their conditions need not be identical. Equal entries are not always repeated. Marks after values point to notes of the source that are not given here.

With Urokinase [reference compound], the “Cerebral blood flow: Percentage decrease after injection of thrombin (%)” value in data set [1] (5000 U/kg group, value before administration) came out at 50.10 ± 7.94%. Further, in data set [1] (5000 U/kg i.v.), the “Cerebral infarction rate (%)” value came out at 9.72 ± 9.89 % and the “Cerebral water content (%)” value is recorded as 79.78 ± 0.72 %. Moreover, the “Cerebral blood flow: Percentage decrease two hours after administration (%)” value in data set [1] (5000 U/kg i.v. once 2 h after modeling) was 37.12 ± 4.49 %. The same molecule registered a Pathological damage score in data set [1] (5000 U/kg i.v., HE staining) of 1.75 ± 0.86. In data set [1] (5000 U/kg i.v., after 24 h), this molecule yielded a Behavioral score of 1.60 ± 0.70.

As to `CC(=O)N[C@@H](CSCC1OC2OC3C(CSC[C@H](NC(C)=O)C(=O)[O-])OC(OC4C(CSC[C@H](NC(C)=O)C(=O)[O-])OC(OC5C(CSC[C@H](NC(C)=O)C(=O)[O-])OC(OC6C(CSC[C@H](NC(C)=O)C(=O)[O-])OC(OC7C(CSC[C@H](NC(C)=O)C(=O)[O-])OC(OC8C(CSC[C@H](NC(C)=O)C(=O)[O-])OC(OC9C(CSC[C@H](NC(C)=O)C(=O)[O-])OC(OC1C(O)C2O)C(O)C9O)C(O)C8O)C(O)C7O)C(O)C6O)C(O)C5O)C(O)C4O)C(O)C3O)C(=O)[O-].[Na+].[Na+].[Na+].[Na+].[Na+].[Na+].[Na+].[Na+]` (some centres unmarked) [Compound (2)], in data set [2], the “Preventative effect on thrombosis (%)” value is reported as 39%. Also, the “Cardiac erythrocyte staining intensity (pixels, mean ± SE)” value in data set [2] (n = 10) was found to be 3655 ± 318 pixels. Besides, the “Cardiac erythrocyte staining intensity (pixels, mean ± SE)” value in data set [2] (n = 10, listed as compound (2)) is recorded as 3655 pixels. Further, in the data set with tryptase, the “Sensitization risk, in words” value was “no or substantially no sensitization risk”; the “Relative sensitization risk (compared with positive control group)” value was −4%; the “Sensitization risk (%)” value is listed as −3.7%; the “Absorbance value (OD value), parallel wells 1-6” value is 0.05655 and 0.05255 and 0.04865 and 0.04785 and 0.05085 and 0.05405. The “Absorbance value (OD value), mean” value with tryptase is given as 0.052.

With `CC(=O)N[C@H](CSCC1OC2OC3C(CSC[C@@H](NC(C)=O)C(=O)[O-])OC(OC4C(CSC[C@@H](NC(C)=O)C(=O)[O-])OC(OC5C(CSC[C@@H](NC(C)=O)C(=O)[O-])OC(OC6C(CSC[C@@H](NC(C)=O)C(=O)[O-])OC(OC7C(CSC[C@@H](NC(C)=O)C(=O)[O-])OC(OC1C(O)C2O)C(O)C7O)C(O)C6O)C(O)C5O)C(O)C4O)C(O)C3O)C(=O)[O-].[Na+].[Na+].[Na+].[Na+].[Na+].[Na+]` (some centres unmarked) [Compound (3)], the “Lipid ROS levels (%)” value was 146.56 ± 7.67% in data set [3] (1 μM, control = 100, Mean±SD); 141.34 ± 4.22% in data set [3] (2.5 μM); 136.81 ± 7.9% in data set [3] (5 μM); 132.38 ± 2.23% in data set [3] (10 μM); 125.33 ± 9.79^# % in data set [3] (20 μM); 120.37 ± 10.16^## % in data set [3] (40 μM). In addition, the “Preventative effect on thrombosis (%)” value in data set [2] came to 17%. Also, the “Cardiac erythrocyte staining intensity (pixels, mean ± SE)” value is listed as 3045 ± 219 pixels in data set [2] (n = 10) and 3045 pixels in data set [2] (n = 10, listed as compound (3)). Further, the “Anti-inflammatory effect (%)” value in data set [4] (11.1 ng/tail intravenous) is 38*** %; in data set [4] (33.3 ng/tail intravenous), 36*** %; in data set [4] (100 ng/tail intravenous), 36*** %. In addition, the “Fluorescence intensity of perivascular macrophage (pixels, Mean ± SE)” value in data set [4] (11.1 ng/tail intravenous) turned out to be 113809 ± 7995 pixels; in data set [4] (33.3 ng/tail intravenous), 118747 ± 6434 pixels; in data set [4] (100 ng/tail intravenous), 118504 ± 10539 pixels. Also, the “Expression of GPX4 mRNA” value with GPX4 mRNA (1 μM, control about 1.00, Mean±SD) was 0.4359 ± 0.05; with GPX4 mRNA (2.5 μM) it was 0.4875 ± 0.01; with GPX4 mRNA (5 μM) it was 0.5407 ± 0.06; in the data set with GPX4 mRNA (10 μM), 0.6152 ± 0.07^##; with GPX4 mRNA (20 μM) it was 0.6765 ± 0.07^##; in the data set on GPX4 mRNA (40 μM), 0.7421 ± 0.08^##. The “Cell viability (%)” value in data set [5] (1 μM, 24 h, control = 100, Mean±SD) was 52.87 ± 2.55%; in data set [5] (2.5 μM), 56.6 ± 4.76%; in data set [5] (5 μM), 62.52 ± 8.51%; in data set [5] (10 μM), 66.77 ± 6.27%; in data set [5] (20 μM), 73.21 ± 8.1^# %; in data set [5] (40 μM) it was 77.95 ± 6.34^## %. The “Concentration above which cell viability was significantly increased compared with the model group” value in data set [5] (p<0.05) was “greater than 10 μM”. For the same molecule, the “Iron content (PGSK probe)” value is 56.48 ± 3.32^ in data set [6] (1 μM, control = 100, PGSK fluorescence, weaker = more iron); 62.3 ± 7 in data set [6] (2.5 μM); 67.06 ± 11.62 in data set [6] (5 μM); 71.61 ± 9.86^ in data set [6] (10 μM); 76.67 ± 7.25^# in data set [6] (20 μM); 83.81 ± 9.91^## in data set [6] (40 μM).

For the molecule `OCC1OC2OC3C(CO)OC(OC4C(CO)OC(OC5C(CO)OC(OC6C(CO)OC(OC7C(CO)OC(OC8C(CO)OC(OC9C(CO)OC(OC1C(O)C2O)C(O)C9O)C(O)C8O)C(O)C7O)C(O)C6O)C(O)C5O)C(O)C4O)C(O)C3O` (centres unmarked) [Compound (10)], the “Preventative effect on thrombosis (%)” value in data set [2] is on record as 64%. Also, the “Cardiac erythrocyte staining intensity (pixels, mean ± SE)” value in data set [2] (n = 10) is recorded as 4326 ± 383 pixels. In data set [2] (n = 10, listed as compound (10)), the “Cardiac erythrocyte staining intensity (pixels, mean ± SE)” value came to 4326 pixels. In addition, in the data set with tryptase, the “Sensitization risk, in words” value is “low sensitization risk”; the “Relative sensitization risk (compared with positive control group)” value was found to be 33%; the “Sensitization risk (%)” value worked out at 27.8%; the “Absorbance value (OD value), parallel wells 1-6” value was 0.07115 and 0.06947 and 0.06795 and 0.07585 and 0.06445. The “Absorbance value (OD value), mean” value with tryptase stood at 0.069.
